Results taken from the CheMixHub ionic liquid set.
± gives the uncertainty stated by the source.

Test: xn = mol fraction of the nth substance listed
Settings: for viscosity: 100 kPa; for electrical conductivity: 298 K, 101 kPa

C[N+](C)(C)Cc1ccccc1.[Cl-] + O=C([O-])c1ccccc1.[Na+] + O
viscosity [mPa·s]
Settings	298.15 K	303.15 K	308.15 K	313.15 K	318.15 K
x1 = 9.698e-05, x2 = 0.001545	0.924 ± 0.02	0.835 ± 0.018	0.753 ± 0.017	0.654 ± 0.015	0.566 ± 0.013
x1 = 9.701e-05, x2 = 0.00127	0.919 ± 0.02	0.829 ± 0.018	0.748 ± 0.017	0.65 ± 0.015	0.562 ± 0.013
x1 = 9.703e-05, x2 = 0.0009982	0.913 ± 0.02	0.823 ± 0.018	0.742 ± 0.017	0.645 ± 0.015	0.558 ± 0.013
x1 = 9.706e-05, x2 = 0.0007245	0.906 ± 0.02	0.817 ± 0.018	0.737 ± 0.016	0.64 ± 0.014	0.552 ± 0.013
x1 = 9.709e-05, x2 = 0.0004525	0.901 ± 0.02	0.812 ± 0.018	0.731 ± 0.016	0.635 ± 0.014	0.548 ± 0.013
x1 = 9.711e-05, x2 = 0.0001803	0.896 ± 0.02	0.807 ± 0.018	0.726 ± 0.016	0.629 ± 0.014	0.544 ± 0.012
x1 = 0.0002915, x2 = 0.001548	0.927 ± 0.02	0.84 ± 0.019	0.758 ± 0.017	0.652 ± 0.015	0.562 ± 0.013
x1 = 0.0002916, x2 = 0.001	0.915 ± 0.02	0.827 ± 0.018	0.747 ± 0.017	0.64 ± 0.014	0.554 ± 0.013
x1 = 0.0002916, x2 = 0.001272	0.92 ± 0.02	0.833 ± 0.018	0.752 ± 0.017	0.647 ± 0.015	0.559 ± 0.013
x1 = 0.0002917, x2 = 0.0007258	0.909 ± 0.02	0.821 ± 0.018	0.74 ± 0.016	0.637 ± 0.014	0.55 ± 0.013
x1 = 0.0002918, x2 = 0.0004533	0.902 ± 0.02	0.816 ± 0.018	0.735 ± 0.016	0.631 ± 0.014	0.544 ± 0.012
x1 = 0.0002919, x2 = 0.0001807	0.898 ± 0.02	0.812 ± 0.018	0.731 ± 0.016	0.626 ± 0.014	0.54 ± 0.012
x1 = 0.0004867, x2 = 0.001551	0.932 ± 0.02	0.843 ± 0.019	0.76 ± 0.017	0.665 ± 0.015	0.577 ± 0.013
x1 = 0.0004868, x2 = 0.001275	0.926 ± 0.02	0.837 ± 0.018	0.754 ± 0.017	0.66 ± 0.015	0.573 ± 0.013
x1 = 0.0004869, x2 = 0.001002	0.919 ± 0.02	0.831 ± 0.018	0.748 ± 0.017	0.655 ± 0.015	0.569 ± 0.013
x1 = 0.0004871, x2 = 0.0007272	0.913 ± 0.02	0.826 ± 0.018	0.743 ± 0.017	0.649 ± 0.015	0.563 ± 0.013
x1 = 0.0004872, x2 = 0.0004542	0.908 ± 0.02	0.82 ± 0.018	0.737 ± 0.016	0.645 ± 0.015	0.559 ± 0.013
x1 = 0.0004873, x2 = 0.000181	0.903 ± 0.02	0.815 ± 0.018	0.733 ± 0.016	0.64 ± 0.014	0.555 ± 0.013

OC[C@@H](O)[C@@H](O)[C@H](O)[C@@H](O)CO + CC(=O)[O-].CC[n+]1ccn(C)c1
303.15 K
Settings	viscosity [mPa·s]
x1 = 0.1894	283 ± 14
x1 = 0.5836	2256 ± 140

CCCC[n+]1ccn(C)c1.CCOS(=O)(=O)[O-] + CC[n+]1ccn(C)c1.O=S(=O)([N-]S(=O)(=O)C(F)(F)F)C(F)(F)F
298.15 K
Settings	viscosity [mPa·s]
x2 = 0	255.2 ± 7.6
x2 = 0.5013	87.6 ± 1.5
x2 = 0.7113	57.11 ± 0.83

ClCCl + CCCC[n+]1ccn(C)c1.O=S(=O)([N-]S(=O)(=O)C(F)(F)F)C(F)(F)F
Settings	electrical conductivity [S/m]
x1 = 0.8744	1.36 ± 0.1
x1 = 0.9287	0.98 ± 0.1
x1 = 0.9459	0.797 ± 0.095

CCCCCCCCCCCCCC[P+](CCCCCC)(CCCCCC)CCCCCC.[c-]1nc[nH]n1 + CCCCCC[n+]1ccn(C)c1.O=S(=O)([N-]S(=O)(=O)C(F)(F)F)C(F)(F)F
viscosity [mPa·s]
Settings	278.15 K	283.15 K	288.15 K	293.15 K	298.15 K	303.15 K	308.15 K	313.15 K	318.15 K	323.15 K
x2 = 0.1	5162 ± 770	3302 ± 470	2162 ± 300	1458 ± 200	1013 ± 140	720 ± 94	524 ± 67	389 ± 49	296 ± 37	229 ± 28
x2 = 0.195	4777 ± 700	3062 ± 440	2000 ± 280	1349 ± 180	930 ± 120	664 ± 86	484 ± 62	359 ± 45	273 ± 34	211 ± 26
x2 = 0.282	4094 ± 600	2612 ± 370	1719 ± 240	1162 ± 160	810 ± 110	579 ± 75	422 ± 54	314 ± 39	239 ± 30	185 ± 23
x2 = 0.378	3093 ± 440	1992 ± 280	1317 ± 180	900 ± 120	633 ± 82	456 ± 58	337 ± 42	253 ± 31	194 ± 24	152 ± 19
x2 = 0.493	2209 ± 310	1445 ± 200	970 ± 130	677 ± 88	485 ± 62	355 ± 45	267 ± 33	204 ± 25	159 ± 19	127 ± 15
x2 = 0.6	1397 ± 190	940 ± 120	641 ± 83	452 ± 58	329 ± 41	245 ± 30	186 ± 23	145 ± 18	115 ± 14	93 ± 11
x2 = 0.693	910 ± 120	619 ± 80	431 ± 55	308 ± 39	227 ± 28	171 ± 21	132 ± 16	104 ± 13	83 ± 10	67 ± 8
x2 = 0.792	612 ± 79	424 ± 54	301 ± 38	220 ± 27	165 ± 20	127 ± 16	99 ± 12	79 ± 10	64 ± 8	53 ± 6
x2 = 0.893	325 ± 41	235 ± 29	174 ± 22	132 ± 16	103 ± 13	81 ± 10	65 ± 8	54 ± 7	–	–
